Measured values: article PMC8952208, “Synthesis, Antiplasmodial, and Antileukemia Activity of Dihydroartemisinin–HDAC Inhibitor Hybrids as Multitarget Drugs” (Pharmaceuticals, 2022)

Legend:
[1] = system: acetylation of α-tubulin (marker of HDAC6 inhibition); experiment: Immunoblotting, acetyl-α-tubulin in K562 cells; type: cell-based, human; conditions: 0.4 µM, 24 h
Experimental: (§1) K562 cells were treated with the indicated concentration of the compounds or vehicle control (DMSO) for 24 h. The recovered cell pellets were lysed with RIPA buffer (50 mM Tris-HCl pH 8.0, 1% Triton X-100, 0.5% sodium deoxycholate, 0.1% SDS, 150 mM sodium chloride, and 2 mM EDTA), supplemented with protease and phosphatase inhibitors (Thermofischer Scientific, Waltham, MA, USA). An equal amount of total protein (20 µg) was resolved by SDS-PAGE and followed by transfer on nitrocellulose membrane (Sigma-Aldrich). PageRuler prestained protein ladder, 10 kDa to 180 kDa (Thermofisher Scientific, Waltham, MA, USA) was used as a protein molecular weight marker.

[2] = system: acetylation of histone H3 (marker of HDAC1 inhibition); experiment: Immunoblotting, acetyl-histone H3 in K562 cells; type: cell-based, human; conditions: 0.4 µM, 24 h
Experimental: as §1

## O=C(CCCCCCC(=O)Nc1ccccc1)NO [Vorinostat, vorinostat]
[1]
  acetylation of α-tubulin (immunoblot): caused hyperacetylation of α-tubulin and histone H3
[2]
  acetylation of histone H3 (immunoblot): caused hyperacetylation of α-tubulin and histone H3
